# Experimental data as given in patent US9708368B2, “Linear peptide antibiotics” (priority 2012, dated 2017).
# pIC50: −log10 of the molar value. Square brackets hold non-standard residues; d marks the D form. Peptide text beside a SMILES is read from it. * marks the point of attachment. ξ: configuration not given here. boroAla((+)-pinanediol) = C[C@H](N*)B1O[C@@H]2C[C@@H]3C[C@@H](C3(C)C)[C@]2(C)O1; Biphenylcarbonyl(4'-Bu) = CCCCc1ccc(-c2ccc(C(=O)*)cc2)cc1; X1 = C[C@H](N*)B1OC2C[C@@H]3C[C@@H](C3(C)C)[C@]2(C)O1; Benzoyl(4-octyl) = CCCCCCCCc1ccc(C(=O)*)cc1; X16 = CC(C)(C)c1ccc(-c2ccc(C(=O)*)cc2)cc1; Pro(4S-NH2) = N[C@@H]1CN[C@H](C(=O)O)C1; NMeY = CN[C@@H](Cc1ccc(O)cc1)C(=O)O; NMeT = CN[C@H](C(=O)O)[C@@H](C)O; NMeE = CN[C@@H](CCC(=O)O)C(=O)O; NMeK = CN[C@@H](CCCCN)C(=O)O; NMeV = CN[C@H](C(=O)O)C(C)C; boroAla = C[C@H](N*)B(O)O; Dab = NCC[C@H](N)C(=O)O; Ac3c = NC1(C(=O)O)CC1; ξOrn = NCCCC(N)C(=O)O; βAla = NCCC(=O)O
# Key:
# [1] = test system: methicillin resistant Staphylococcus aureus (MRSA) strain USA300 (NRS384); details: Method B, 35° C., 22 hours
# [2] = biological target: S. aureus SPase (Staphylococcus aureus, UniProt P0A070); test: biochemical
# [3] = biological target: E. coli SPase (Escherichia coli, UniProt P00803); test: Biochemical SPase activity assay (fluorogenic peptide substrate), E. coli enzyme
# [4] = test system: Escherichia coli strain MC4100 IMP-4213, which harbors an LptD mutation; details: Method B; E. coli MC4100 IMP-4213 (LptD mutation); 35° C., 22 hours
# How it was run: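 Two-fold serial dilutions of compound inoculated at final OD600 0.0005, incubated static at 35 °C for 22 h, and growth read visually.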
SMILES,MIC (μg/mL) S. aureus [1] [µg/mL],pIC50 [2],pIC50 [3],MIC (μg/mL) E. coli [4] [µg/mL]
CCCCc1ccc(-c2ccc(C(=O)NCCC(=O)N3C[C@@H](N)C[C@H]3C(=O)N[C@H](C(=O)N[C@@H](C)C(=O)N[C@@H](CC(N)=O)C(=O)N[C@@H](C)B3OC4C[C@@H]5C[C@@H](C5(C)C)[C@]4(C)O3)[C@@H](C)O)cc2)cc1 (stereo partly drawn) [Compound 213] ({Biphenylcarbonyl(4'-Bu)-βAla}-[Pro(4S-NH2)]TAN-X1),0.22,8.11,8.17,1.3
CCCCc1ccc(-c2ccc(C(=O)NCCC(=O)N[C@@H](CCCCN)C(=O)N3CCC[C@H]3C(=O)N[C@@H](C)C(=O)N[C@@H](CCCCN)C(=O)N[C@@H](C)B3OC4C[C@@H]5C[C@@H](C5(C)C)[C@]4(C)O3)cc2)cc1 (stereo partly shown) [Compound 214] ({Biphenylcarbonyl(4'-Bu)-βAla}-KPAK-X1),0.35,7.77,7.11,5.7
CCCCc1ccc(-c2ccc(C(=O)NCCC(=O)N[C@@H](CCCCN)C(=O)N[C@@H](Cc3ccc(O)cc3)C(=O)N[C@@H](C)C(=O)N[C@@H](CCCCN)C(=O)N[C@@H](C)B(O)O)cc2)cc1 [Compound 215] ({Biphenylcarbonyl(4'-Bu)-βAla}-KYAK-boroAla),0.5,7.77,7.11,4
CCCCc1ccc(-c2ccc(C(=O)NCCC(=O)N[C@@H](CCCCN)C(=O)N[C@@H](CCC(N)=O)C(=O)N[C@@H](C)C(=O)N[C@@H](CCCCN)C(=O)N[C@@H](C)B3OC4C[C@@H]5C[C@@H](C5(C)C)[C@]4(C)O3)cc2)cc1 (stereo partly shown) [Compound 216] ({Biphenylcarbonyl(4'-Bu)-βAla}-KQAK-X1),0.21,8.39,7.54,4
CCCCc1ccc(-c2ccc(C(=O)NCCC(=O)N[C@@H](CCCCN)C(=O)NC(CCCN)C(=O)N[C@@H](C)C(=O)N[C@@H](CC(C)C)C(=O)N[C@@H](C)B3OC4C[C@@H]5C[C@@H](C5(C)C)[C@]4(C)O3)cc2)cc1 (stereo partly shown) [Compound 217] ({Biphenylcarbonyl(4'-Bu)-βAla}-K[ξOrn]AL-X1),0.35,7.85,7.82,1.6
CCCCc1ccc(-c2ccc(C(=O)NCCC(=O)N[C@@H](CCCCN)C(=O)N[C@@H](CCCCN)C(=O)N[C@@H](C)C(=O)N[C@@H](CC(C)C)C(=O)N[C@@H](C)B3OC4C[C@@H]5C[C@@H](C5(C)C)[C@]4(C)O3)cc2)cc1 (stereo partly shown) [Compound 218] ({Biphenylcarbonyl(4'-Bu)-βAla}-KKAL-X1),0.5,7.89,8.16,1.3
CCCCc1ccc(-c2ccc(C(=O)NCCC(=O)N[C@@H](CCCCN)C(=O)N[C@H](C(=O)N[C@@H](C)C(=O)NC3(C(=O)N[C@@H](C)B4OC5C[C@@H]6C[C@@H](C6(C)C)[C@]5(C)O4)CC3)[C@@H](C)O)cc2)cc1 (stereo partly shown) [Compound 219] ({Biphenylcarbonyl(4'-Bu)-βAla}-KTA[Ac3c]-X1),5,7.34,6.25,64
CCCCc1ccc(-c2ccc(C(=O)NCCC(=O)N[C@@H](CCCCN)C(=O)N3CCC[C@H]3C(=O)N[C@@H](C)C(=O)N[C@@H](CC(N)=O)C(=O)N[C@@H](C)B(O)O)cc2)cc1 [Compound 220] ({Biphenylcarbonyl(4'-Bu)-βAla}-KPAN-boroAla),0.5,8.15,7.44,4
CCCCc1ccc(-c2ccc(C(=O)NCCC(=O)N[C@@H](CCCCN)C(=O)N3CCC[C@H]3C(=O)N[C@@H](C)C(=O)N[C@@H](CCCCN)C(=O)N[C@@H](C)B(O)O)cc2)cc1 [Compound 221] ({Biphenylcarbonyl(4'-Bu)-βAla}-KPAK-boroAla),1,6.89,7.21,8
CCCCc1ccc(-c2ccc(C(=O)NCCC(=O)N[C@@H](CCCCN)C(=O)N[C@@H](CCCCN)C(=O)N[C@@H](C)C(=O)N[C@@H](CCCCN)C(=O)N[C@@H](C)B(O)O)cc2)cc1 [Compound 224] ({Biphenylcarbonyl(4'-Bu)-βAla}-KKAK-boroAla),0.13,7.92,7.26,2.8
CCCCc1ccc(-c2ccc(C(=O)NCCC(=O)N[C@@H](CCCCN)C(=O)N[C@H](C(=O)N[C@@H](C)C(=O)N[C@@H](Cc3ccc(O)cc3)C(=O)N[C@@H](C)B3OC4C[C@@H]5C[C@@H](C5(C)C)[C@]4(C)O3)[C@@H](C)O)cc2)cc1 (stereo partly shown) [Compound 225] ({Biphenylcarbonyl(4'-Bu)-βAla}-KTAY-X1),0.57,8.40,8.15,2
CCCCc1ccc(-c2ccc(C(=O)N[C@H](CO)C(=O)N[C@H](C)C(=O)NCC(=O)N(C)[C@H](C(=O)N[C@@H](C)C(=O)N[C@@H](CC(N)=O)C(=O)N[C@@H](C)B3OC4C[C@@H]5C[C@@H](C5(C)C)[C@]4(C)O3)[C@@H](C)O)cc2)cc1 (stereo partly shown) [Compound 226] ({Biphenylcarbonyl(4'-Bu)}-[dS][dA]G[NMeT]AN-X1),2.8,6.85,6.36,25
CCCCc1ccc(-c2ccc(C(=O)N[C@H](CO)C(=O)N[C@H](C)C(=O)NCC(=O)N(C)[C@@H](Cc3ccc(O)cc3)C(=O)N[C@@H](C)C(=O)N[C@@H](CC(N)=O)C(=O)N[C@@H](C)B3OC4C[C@@H]5C[C@@H](C5(C)C)[C@]4(C)O3)cc2)cc1 (stereo partly shown) [Compound 227] ({Biphenylcarbonyl(4'-Bu)}-[dS][dA]G[NMeY]AN-X1),8,6.07,6.26,13
CCCCc1ccc(-c2ccc(C(=O)N[C@H](CO)C(=O)N[C@H](C)C(=O)NCC(=O)N(C)[C@@H](CCCCN)C(=O)N[C@@H](C)C(=O)N[C@@H](CC(N)=O)C(=O)N[C@@H](C)B3OC4C[C@@H]5C[C@@H](C5(C)C)[C@]4(C)O3)cc2)cc1 (stereo partly shown) [Compound 228] ({Biphenylcarbonyl(4'-Bu)}-[dS][dA]G[NMeK]AN-X1),5.7,6.57,6.44,2.8
CCCCc1ccc(-c2ccc(C(=O)N[C@H](CO)C(=O)N[C@H](C)C(=O)NCC(=O)N(C)[C@@H](CCC(=O)O)C(=O)N[C@@H](C)C(=O)N[C@@H](CC(N)=O)C(=O)N[C@@H](C)B3OC4C[C@@H]5C[C@@H](C5(C)C)[C@]4(C)O3)cc2)cc1 (stereo partly shown) [Compound 229] ({Biphenylcarbonyl(4'-Bu)}-[dS][dA]G[NMeE]AN-X1),64,6.66,6.54,32
CCCCc1ccc(-c2ccc(C(=O)N[C@H](CO)C(=O)N[C@H](C)C(=O)NCC(=O)N(C)[C@H](C(=O)N[C@@H](C)C(=O)N[C@@H](CC(N)=O)C(=O)N[C@@H](C)B3OC4C[C@@H]5C[C@@H](C5(C)C)[C@]4(C)O3)C(C)C)cc2)cc1 (stereo partly shown) [Compound 230] ({Biphenylcarbonyl(4'-Bu)}-[dS][dA]G[NMeV]AN-X1),2,6.82,6.41,20
C[C@H](NC(=O)[C@H](CCCCN)NC(=O)[C@H](C)NC(=O)[C@@H](NC(=O)[C@H](CCN)NC(=O)c1ccc(-c2ccc(C(C)(C)C)cc2)cc1)[C@@H](C)O)B1O[C@@H]2C[C@@H]3C[C@@H](C3(C)C)[C@]2(C)O1 [Compound 231] (X16-[Dab]TAK-{boroAla((+)-pinanediol)}),0.5,7.02,8.35,0.5
CCCCCCCCc1ccc(C(=O)N[C@@H](CCN)C(=O)N[C@H](C(=O)N[C@@H](C)C(=O)N[C@@H](CCCCN)C(=O)N[C@@H](C)B2OC3C[C@@H]4C[C@@H](C4(C)C)[C@]3(C)O2)[C@@H](C)O)cc1 (stereo partly shown) [Compound 232] ({Benzoyl(4-octyl)}-[Dab]TAK-X1),0.31,6.85,8.30,0.25
CCCCc1ccc(-c2ccc(C(=O)N[C@@H](CCN)C(=O)N[C@H](C(=O)N[C@@H](C)C(=O)N[C@@H](CCCCN)C(=O)N[C@@H](C)B3OC4C[C@@H]5C[C@@H](C5(C)C)[C@]4(C)O3)[C@@H](C)O)nc2)cc1 (stereo partly shown) [Compound 233],0.5,6.66,7.54,1
CCCCc1ccc(-c2ccc(C(=O)N[C@@H](CCN)C(=O)N[C@H](C(=O)N[C@@H](C)C(=O)N[C@@H](CCCCN)C(=O)N[C@@H](C)B3OC4C[C@@H]5C[C@@H](C5(C)C)[C@]4(C)O3)[C@@H](C)O)cn2)cc1 (stereo partly shown) [Compound 234],0.4,7.28,8.08,0.5
C[C@H](NC(=O)[C@H](CCCCN)NC(=O)[C@H](C)NC(=O)[C@@H](NC(=O)[C@H](CCN)NC(=O)c1ccc(-c2ccccc2C(F)(F)F)cc1)[C@@H](C)O)B1OC2C[C@@H]3C[C@@H](C3(C)C)[C@]2(C)O1 (stereo partly shown) [Compound 236],2,6.89,7.55,8
C[C@H](NC(=O)[C@H](CCCCN)NC(=O)[C@H](C)NC(=O)[C@@H](NC(=O)[C@H](CCN)NC(=O)c1ccc(-c2ccc(C(F)(F)F)cc2)cc1)[C@@H](C)O)B1OC2C[C@@H]3C[C@@H](C3(C)C)[C@]2(C)O1 (stereo partly shown) [Compound 237],0.71,6.68,7.80,2
